Among the data in paper doi:10.1101/2023.07.10.548257 (bioRxiv, 2024) are EC50 values, retold here.

For the assay, the target named is T1, full-length SHP2^WT (Homo sapiens, UniProt Q06124).
T1 construct: Full-length SHP2 constructs were diluted in assay buffer; His6-TEV (N, cleaved yes); made in house; host or cells: E. coli BL21(DE3)
T1 sequence (Q06124 1-593): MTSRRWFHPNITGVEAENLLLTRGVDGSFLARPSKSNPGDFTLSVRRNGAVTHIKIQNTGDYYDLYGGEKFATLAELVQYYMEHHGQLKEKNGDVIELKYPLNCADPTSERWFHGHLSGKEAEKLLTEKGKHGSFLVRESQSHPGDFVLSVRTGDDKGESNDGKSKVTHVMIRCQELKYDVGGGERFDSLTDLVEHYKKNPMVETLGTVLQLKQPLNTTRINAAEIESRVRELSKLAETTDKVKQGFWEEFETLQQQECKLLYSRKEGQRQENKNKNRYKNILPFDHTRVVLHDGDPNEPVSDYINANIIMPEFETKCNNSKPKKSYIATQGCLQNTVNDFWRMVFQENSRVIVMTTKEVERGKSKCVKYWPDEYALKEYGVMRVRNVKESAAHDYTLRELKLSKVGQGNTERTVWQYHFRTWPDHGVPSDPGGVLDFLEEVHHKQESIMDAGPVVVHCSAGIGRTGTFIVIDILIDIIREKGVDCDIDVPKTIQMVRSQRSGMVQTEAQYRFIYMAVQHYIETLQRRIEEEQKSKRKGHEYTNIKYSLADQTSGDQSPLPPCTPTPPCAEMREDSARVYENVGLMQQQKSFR
The experiment in a line: SHP2 activation assay using phosphopeptides (DiFMUP), SHP2 WT. It counts as biochemical. The note with it: activation of full-length SHP2 WT (0.05 nM) by phosphopeptide; DiFMUP substrate; 60 mM HEPES pH 7.2, 75 mM KCl, 75 mM NaCl, 1 mM EDTA, 0.05% Tween-20, 0.5 mM TCEP; fluorescence read every 25 s for 6 min; mean of N (column N). How it is done:
SHP2 activation assays using phosphopeptides
Full-length SHP2 constructs were diluted in assay buffer (60 mM HEPES pH 7.2, 75 mM KCl, 75 mM NaCl,1 mM EDTA, 0.05% Tween-20, with 0.5 mM TCEP freshly added) to a 2X concentration of 0.1 nM. Peptides were serially diluted in assay buffer, with the last point of the concentration series fully without peptide. 15 μL of peptide and 15 μL of 800 μM DiFMUP was added to a black 96-well half area plate. Right before starting the plate reader assay, 30 μL SHP2 was added to each well a Supplementary Information - page 4 of 18 […]
final concentration of 0.05nM. Kinetic measurements (Ex 358/Em […]) were taken on a BioTek Neo2 plate reader every 25 seconds for 6 minutes. […]
OD600 reached 0.5. 20 mL of cell suspension was induced at 25 °C using a final concentration of 0.4% arabinose until the OD600 ~ 1 (after approximately 4 hours). The cells were spun down at 4000 rpm for 15 minutes, and the pellet was resuspended in PBS so that the OD600 ~1.5. The cells were stored in the fridge and used within a week.
For each sample, 75 μL of Dynabeads™ FlowComp™ Flexi Kit were washed twice in 1 mL SH2 buffer (50 mM HEPES pH 7.5, 150 mM NaCl, 1 mM TCEP, and 0.2% BSA) on a magnetic rack.
The beads were then resuspended in 75 μL of SH2 buffer. SH2 domains were thawed quickly and 20 μM of protein was added to the beads. SH2 buffer was added up to 150 μL, and the suspension was incubated for 1 hour at 4 °C while rotating. After 1 hour, the suspension was placed on a magnetic rack and washed twice with 1 mL SH2 buffer.
Preparing the phosphorylated cells
150 μL of prepared cells per sample were spun down for 4000 rpm for 5 minutes at 4 °C.
Kinase screen buffer was prepared (50 mM Tris, 10 mM magnesium chloride, 150 mM sodium chloride; add 2 mM sodium orthovanadate and 1 mM TCEP fresh) and the cells of each sample were resuspended in 100 μL kinase screen buffer. Kinases c-Src, c-Abl, AncSZ, Eph1B were added to a final concentration of 2.5 µM each, creatine phosphate was added to a final concentration of 5 mM, and phosphokinase was added to a final concentration of 50 µg/mL. The suspension was incubated at 37 °C for 5 minutes before ATP was added to a final concentration of 1 mM. This mixture was incubated at 37 °C for 3 hours. After 3 hours, EDTA was added to a final concentration of 25 mM to quench the reaction. The input library control sample was not phosphorylated. These cells were spun down at 4000 rpm for 15 minutes at 4 °C. The cells were then resuspended in 100 µL of SH2 buffer + 0.1% BSA. Phosphorylation of the cells was confirmed by labeling with the PY20-PerCP-eFluor 710 pan-phosphotyrosine antibody followed by analysis via flow cytometry.
Enriching for cells displaying high-affinity phosphopeptide ligands
100 μL of phosphorylated cells were mixed with 75 µL SH2-beads for 1 hour at 4 °C while rotating. After 1 hour, samples were placed on a magnetic rack, supernatant was removed and 1 mL SH2 buffer was added to each sample. This was rotated for 30 minutes at 4 °C to wash the beads.
After this wash, the beads were placed on a magnetic rack, the supernatant was removed and 50 µL […]
Preparing sequencing samples & deep sequencing
All SH2-selected samples and the input library control were resuspended in 50 µL MilliQ water, vortexed, and boiled for 10 minutes at 100 °C. The boiled lysate was used as the DNA template in a PCR reaction using the TruSeq-eCPX-Fwd and TruSeq-eCPX-Rev primers. The mixture resulting from this PCR was used directly into a second PCR to append Illumina sequencing adaptors and Supplementary Information - page 5 of 18
`CC[C@H](C)[C@H](NC(=O)[C@H](Cc1ccc(OP(=O)(O)O)cc1)NC(=O)[C@H](CC(N)=O)NC(=O)[C@H](CC(C)C)NC(=O)CNC(=O)[C@H](CC(N)=O)NC(=O)[C@H](CCC(=O)O)NC(=O)[C@H](CC(C)C)NC(C)=O)C(=O)N[C@@H](CC(=O)O)C(=O)N[C@@H](CC(C)C)C(=O)N[C@@H](CC(=O)O)C(=O)N[C@@H](CC(C)C)C(=O)N[C@H](C(N)=O)C(C)C` came in with a half-maximal effective concentration (EC50) of 1.75 µM.

As to `CC(=O)N[C@@H](CO)C(=O)N[C@H](C(=O)NCC(=O)N[C@@H](CO)C(=O)N[C@H](C(=O)N[C@@H](CC(=O)O)C(=O)N[C@@H](Cc1ccc(OP(=O)(O)O)cc1)C(=O)N[C@@H](CC(C)C)C(=O)N[C@@H](C)C(=O)N[C@@H](CC(C)C)C(=O)N[C@@H](CC(=O)O)C(=O)N[C@@H](Cc1ccccc1)C(=O)N[C@@H](CCC(N)=O)C(N)=O)C(C)C)[C@@H](C)O`, the midpoint of the response, the EC50, lay at 8.52 µM.

In turn, `CC[C@H](C)[C@H](NC(=O)[C@H](CC(=O)O)NC(=O)[C@H](C)NC(=O)[C@H](Cc1ccc(OP(=O)(O)O)cc1)NC(=O)[C@H](CCCCN)NC(=O)[C@@H](NC(=O)[C@H](CC(=O)O)NC(=O)CNC(=O)[C@H](CCCCN)NC(=O)[C@H](CCSC)NC(C)=O)C(C)C)C(=O)N[C@@H](CCC(=O)O)C(=O)N[C@@H](CO)C(=O)N[C@@H](CO)C(N)=O` gave an EC50 of 90.5 µM.

Take `CC(=O)N1CCC[C@H]1C(=O)N[C@H](C(=O)N[C@@H](Cc1ccccc1)C(=O)N[C@@H](CO)C(=O)N[C@H](C(=O)N[C@@H](CC(=O)O)C(=O)N[C@@H](Cc1ccc(OP(=O)(O)O)cc1)C(=O)NCC(=O)N[C@@H](CCC(=O)O)C(=O)N[C@@H](CC(C)C)C(=O)N[C@@H](CC(=O)O)C(=O)N[C@@H](Cc1ccccc1)C(=O)N[C@@H](CCC(N)=O)C(N)=O)C(C)C)C(C)C`: the midpoint of the response, the EC50, lay at 18.9 µM. Against the preceding compound, the EC50 is about 4.8-fold lower.

In the case of `CC(=O)N[C@@H](C)C(=O)N[C@@H](CCCCN)C(=O)N[C@@H](CO)C(=O)NCC(=O)N[C@@H](C)C(=O)N[C@H](C(=O)N[C@@H](Cc1ccc(OP(=O)(O)O)cc1)C(=O)N[C@@H](CO)C(=O)N[C@@H](CCC(=O)O)C(=O)N[C@@H](CC(C)C)C(=O)N[C@@H](CC(N)=O)C(=O)N[C@@H](Cc1ccccc1)C(=O)NCC(N)=O)C(C)C`, a half-maximal response (EC50) required 233 µM.

The compound `CSCC[C@H](NC(=O)[C@H](CC(C)C)NC(=O)[C@H](CCC(N)=O)NC(=O)[C@H](C)NC(=O)[C@H](Cc1ccc(OP(=O)(O)O)cc1)NC(=O)[C@H](CC(N)=O)NC(=O)[C@H](CC(C)C)NC(=O)[C@H](C)NC(=O)[C@H](C)NC(=O)[C@H](CCCCN)NC(=O)[C@H](CCCCN)NC(C)=O)C(=O)N[C@@H](Cc1ccccc1)C(=O)N1CCC[C@H]1C(N)=O` had a half-maximal effective concentration (EC50) of 1.32 µM.

`CC[C@H](C)[C@H](NC(=O)[C@H](CC(N)=O)NC(=O)[C@@H](NC(=O)[C@H](Cc1ccc(OP(=O)(O)O)cc1)NC(=O)[C@H](CCC(=O)O)NC(=O)CNC(=O)[C@@H]1CCCN1C(=O)[C@H](CO)NC(=O)[C@H](CCCCN)NC(=O)[C@@H]1CCCN1C(C)=O)C(C)C)C(=O)N[C@@H](CCC(=O)O)C(=O)N[C@@H](Cc1ccccc1)C(=O)NCC(N)=O` showed a half-maximal effective concentration (EC50) of 29.3 µM.

Consider `CC[C@H](C)[C@H](NC(=O)[C@@H](NC(=O)[C@H](C)NC(=O)[C@H](Cc1ccc(OP(=O)(O)O)cc1)NC(=O)[C@H](CCC(=O)O)NC(=O)[C@@H](NC(=O)[C@H](CCC(N)=O)NC(=O)[C@H](CCC(=O)O)NC(=O)[C@@H]1CCCN1C(=O)[C@@H](NC(C)=O)C(C)C)[C@@H](C)O)[C@@H](C)O)C(=O)N[C@H](C(=O)N[C@@H](Cc1ccccc1)C(=O)N1CCC[C@H]1C(N)=O)C(C)C`, for which the EC50 stood at 5.37 µM. Compared with the last compound, the EC50 is about 5.5-fold lower.

`CC[C@H](C)[C@H](NC(=O)[C@@H](NC(=O)[C@H](C)NC(=O)[C@H](Cc1ccc(OP(=O)(O)O)cc1)NC(=O)[C@@H](NC(=O)[C@@H]1CCCN1C(=O)[C@H](CCC(=O)O)NC(=O)[C@@H]1CCCN1C(=O)[C@H](CO)NC(=O)[C@@H](NC(C)=O)C(C)C)[C@@H](C)CC)[C@@H](C)O)C(=O)N[C@@H](CC(=O)O)C(=O)N[C@@H](CC(=O)O)C(=O)N[C@@H](CC(C)C)C(N)=O` registered a half-maximal effective concentration (EC50) of 39.4 µM.
